Each compound was assayed against Bcl-2 (Homo sapiens, UniProt P10415) (assay: Homogeneous HTS assay for inhibitors of the Bcl-2 : Bak (72-87) BH3 domain interaction, fluorescence polarisation (2D-FIDA)). Conditions: fluorescence polarisation, fluorescent labelled Bak BH3 domain derived peptide; read-out: IC50 [μM] Bcl-2.
Assay type: binding
From the text: FIG. 1 is a schematic drawing of the Bcl-2: Bak (72-87) interaction assay based on fluorescence polarisation.
The homogeneous HTS assay for inhibitors of the Bcl-2 is shown schematically in FIG. 1. BH3 domain interaction is based on fluorescence polarisation. The inherent rotational diffusion of the Bak BH3 domain derived fluorescent labelled peptide decreases upon binding to Bc1-2. This shift in rotational diffusion is quantitated using the two-dimensional fluorescence intensity distribution analysis (2D-FIDA; Kask et al. 2000, Biophys. J. 78: 1703-1713).
Two different BH3 domain derived peptide ligands were synthesised and subsequently fluorescently labelled: • a 16mer peptide covering amino acids 72-87 of the Bak protein; this peptide had been used by Wang and co-workers and Holinger and coworkers in their Bcl-2 protein binding studies; Wang and co-workers reported an equilibrium binding constant KD of ˜0.2 μM to Bcl-2 protein; • peptide sequence: GQVGRQLAIIGDDINR—N (Wang et al. 2002, Proc. Natl. Acad. Sci. U.S.A. 97: 7124-7129; Holinger et al. 1999, J. Biol. Chem. 274: 13298-13304).

Sequence of Bcl-2 (P10415 whole entry, species assumed, the tested form may be a part): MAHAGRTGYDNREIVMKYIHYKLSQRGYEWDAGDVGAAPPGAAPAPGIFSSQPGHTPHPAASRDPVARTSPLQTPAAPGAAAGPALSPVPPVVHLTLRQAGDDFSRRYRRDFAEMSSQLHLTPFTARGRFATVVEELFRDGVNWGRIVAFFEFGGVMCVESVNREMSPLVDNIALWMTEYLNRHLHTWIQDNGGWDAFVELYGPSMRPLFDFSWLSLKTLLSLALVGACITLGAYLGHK

Row | Structure (SMILES) | IC50 [µM]
1 | N=c1n(Cc2ccccc2Cl)c2ccccc2n1CC(O)COc1ccccc1 (stereo not shown) [Compound 102, 1-[3-(2-Chloro-benzyl)-2-imino-2,3-dihydro-benzoimidazol-1-yl]-3-phenoxy-propan-2-ol] | > 100
2 | N=c1n(Cc2ccccc2)c2ccccc2n1CC(O)c1ccccc1 (stereo not shown) [Compound 92, 2-(3-Benzyl-2-imino-2,3-dihydro-benzoimidazol-1-yl)-1-phenyl-ethanol] | > 100
3 | N=c1n(Cc2ccccc2)c2ccccc2n1CC1CCOCC1 [Compound 4, 1-Benzyl-3-(tetrahydro-pyran-4-ylmethyl)-1,3-dihydro-benzoimidazol-2-ylideneamine] | > 100
4 | N=c1n(CCCOc2ccc(F)cc2)c2ccc(F)cc2n1Cc1ccc(N2CCN(Cc3ccccc3-c3ccccc3)CC2)cc1 [Compound 63, 3-[4-(4-Biphenyl-2-ylmethyl-piperazin-1-yl)-benzyl]-5-fluoro-1-[3-(4-fluoro-phenoxy)-propyl]-1,3-dihydro-benzoimidazol-2-ylideneamine] | 11 to 100
5 | N=c1n(Cc2ccccc2)c2ccccc2n1Cc1ccncc1 [Compound 3, 1-Benzyl-3-pyridin-4-ylmethyl-1,3-dihydro-benzoimidazol-2-ylideneamine] | > 100
6 | N=c1n(CCCOc2ccc(F)cc2)c2ccccc2n1Cc1ccc(CN2CCN(c3cccc(Cl)c3)CC2)cc1 [Compound 41, 1-{4-[4-(3-Chloro-phenyl)-piperazin-1-ylmethyl]-benzyl}-3-[3-(4-fluoro-phenoxy)-propyl]-1,3-dihydro-benzoimidazol-2-ylideneamine] | 11 to 100
7 | N=c1n(CCCOc2cccc(C(=O)O)c2)c2ccccc2n1Cc1cccc(Br)c1 [Compound 84, 3-{3-[3-(3-Bromo-benzyl)-2-imino-2,3-dihydro-benzoimidazol-1-yl]-propoxy}-benzoic acid] | 11 to 100
8 | Cn1c(=N)n(Cc2ccc(N3CCN(Cc4ccccc4-c4ccccc4)CC3)cc2)c2ccccc21 [Compound 17, 1-[4-(4-Biphenyl-2-ylmethyl-piperazin-1-yl)-benzyl]-3-methyl-1,3-dihydro-benzoimidazol-2-ylideneamine] | 11 to 100
9 | N=c1n(CCCOc2ccc(F)cc2)c2ccccc2n1Cc1cccc(C(=O)O)c1 [Compound 72, 3-{3-[3-(4-Fluoro-phenoxy)-propyl]-2-imino-2,3-dihydro-benzoimidazol-1-ylmethyl}-benzoic acid] | 11 to 100
10 | N=c1n(Cc2ccccc2)c2ccccc2n1CC(O)c1ccco1 (stereo not shown) [Compound 91, 2-(3-Benzyl-2-imino-2,3-dihydro-benzoimidazol-1-yl)-1-furan-2-yl-ethanol] | > 100
11 | COc1ccc(OCC(O)Cn2c(=N)n(Cc3ccccc3)c3ccccc32)cc1 (stereo not shown) [Compound 88, 1-(3-Benzyl-2-imino-2,3-dihydro-benzoimidazol-1-yl)-3-(4-methoxy-phenoxy)-propan-2-ol] | 11 to 100
12 | N=c1n(CCCOc2ccc(F)cc2)c2ccccc2n1Cc1ccc(CNCC(=O)Nc2ccccc2)cc1 [Compound 51, 2-(4-{3-[3-(4-Fluoro-phenoxy)-propyl]-2-imino-2,3-dihydro-benzoimidazol-1-ylmethyl}-benzylamino)-N-phenyl-acetamide] | 11 to 100
13 | N=c1n(CCCOc2cccc(C(=O)O)c2)c2ccccc2n1Cc1ccc(Br)cc1 [Compound 85, 3-{3-[3-(4-Bromo-benzyl)-2-imino-2,3-dihydro-benzoimidazol-1-yl]-propoxy}-benzoic acid] | 11 to 100

Continued, values first:

Row | IC50 [µM] | Structure (SMILES)
14 | < 10 | N=c1n(CCCOc2ccc(F)cc2)c2ccccc2n1Cc1csc(N2CCN(Cc3ccccc3-c3ccc(Cl)cc3)CC2)n1 [Compound 36, 1-{2-[4-(4′-Chloro-biphenyl-2-ylmethyl)-piperazin-1-yl]-thiazol-4-ylmethyl}-3-[3-(4-fluoro-phenoxy)-propyl]-1,3-dihydro-benzoimidazol-2-ylideneamine]
15 | 11 to 100 | N=c1n(CCCOc2ccc(F)cc2)c2ccccc2n1Cc1ccc(CN2CCN(c3ccc(Cl)cc3)CC2)cc1 [Compound 42, 1-{4-[4-(4-Chloro-phenyl)-piperazin-1-ylmethyl]-benzyl}-3-[3-(4-fluoro-phenoxy)-propyl]-1,3-dihydro-benzoimidazol-2-ylideneamine]
16 | 11 to 100 | N=c1n(Cc2ccc(Br)cc2)c2ccccc2n1CC1COc2ccccc2O1 (stereo not shown) [Compound 13, 1-(4-Bromo-benzyl)-3-(2,3-dihydro-benzo[1,4]dioxin-2-ylmethyl)-1,3-dihydro-benzoimidazol-2-ylideneamine]
17 | < 10 | N=c1n(CCCOc2cccc(C(=O)O)c2)c2ccccc2n1Cc1ccc(N2CCN(Cc3ccccc3-c3ccccc3)CC2)cc1 [Compound 70, 3-(3-{3-[4-(4-Biphenyl-2-ylmethyl-piperazin-1-yl)-benzyl]-2-imino-2,3-dihydro-benzoimidazol-1-yl}-propoxy)-benzoic acid]
18 | 11 to 100 | N=c1n(Cc2ccccc2)c2ccccc2n1CC(O)COc1ccc(Cl)cc1 (stereo not shown) [Compound 80, 1-(3-Benzyl-2-imino-2,3-dihydro-benzoimidazol-1-yl)-3-(4-chloro-phenoxy)-propan-2-ol]
19 | 11 to 100 | N=c1n(CCCOc2ccc(F)cc2)c2ccccc2n1Cc1ccc(CN2CCN(Cc3ccccc3-c3ccccc3)CC2)cc1 [Compound 49, 1-[4-(4-Biphenyl-2-ylmethyl-piperazin-1-ylmethyl)-benzyl]-3-[3-(4-fluoro-phenoxy)-propyl]-1,3-dihydro-benzoimidazol-2-ylideneamine]
20 | < 10 | N=c1n(CCCOc2ccc(F)cc2)c2ccccc2n1Cc1ccc(N2CCN(Cc3ccccc3-c3ccccc3)CC2)nc1 [Compound 56, 1-[6-(4-Biphenyl-2-ylmethyl-piperazin-1-yl)-pyridin-3-ylmethyl]-3-[3-(4-fluoro-phenoxy)-propyl]-1,3-dihydro-benzoimidazol-2-ylideneamine]
21 | 11 to 100 | N=c1n(CCCOc2ccc(F)cc2)c2ccccc2n1Cc1ccc(N2CCN(Cc3ccccc3Cl)CC2)nc1 [Compound 57, 1-{6-[4-(2-Chloro-benzyl)-piperazin-1-yl]-pyridin-3-ylmethyl}-3-[3-(4-fluoro-phenoxy)-propyl]-1,3-dihydro-benzoimidazol-2-ylideneamine]
22 | 11 to 100 | CCCCCn1c(=N)n(CC(O)COc2ccccc2OC)c2ccccc21 (stereo not shown) [Compound 98, 1-(2-Imino-3-pentyl-2,3-dihydro-benzoimidazol-1-yl)-3-(2-methoxy-phenoxy)-propan-2-ol]
23 | 11 to 100 | N=c1n(CCCOc2ccc(F)cc2)c2ccccc2n1Cc1ccc(N2CCN(Cc3ccc(Cl)cc3)CC2)nc1 [Compound 55, 1-{6-[4-(4-Chloro-benzyl)-piperazin-1-yl]-pyridin-3-ylmethyl}-3-[3-(4-fluoro-phenoxy)-propyl]-1,3-dihydro-benzoimidazol-2-ylideneamine]
24 | < 10 | N=c1n(CCSc2ccccc2)c2ccccc2n1Cc1ccc(N2CCN(Cc3ccccc3-c3ccc(Cl)cc3)CC2)cc1 [Compound 33, 1-{4-[4-(4′-Chloro-biphenyl-2-ylmethyl)-piperazin-1-yl]-benzyl}-3-(2-phenylsulfanyl-ethyl)-1,3-dihydro-benzoimidazol-2-ylideneamine]
25 | 11 to 100 | N=c1n(CCCOc2ccc(F)cc2)c2ccccc2n1Cc1ccccc1 [Compound 97, 1-Benzyl-3-[3-(4-fluoro-phenoxy)-propyl]-1,3-dihydro-benzoimidazol-2-ylideneamine]
26 | < 10 | N=c1n(Cc2ccc(Br)cc2)c2ccccc2n1CC(O)COc1ccc(F)cc1 (stereo not shown) [Compound 77, 1-[3-(4-Bromo-benzyl)-2-imino-2,3-dihydro-benzoimidazol-1-yl]-3-(4-fluoro-phenoxy)-propan-2-ol]
27 | < 10 | Cc1ccc2c(c1)n(Cc1ccc(N3CCN(Cc4ccccc4-c4ccccc4)CC3)cc1)c(=N)n2CCCOc1ccc(F)cc1 [Compound 62, 3-[4-(4-Biphenyl-2-ylmethyl-piperazin-1-yl)-benzyl]-1-[3-(4-fluoro-phenoxy)-propyl]-5-methyl-1,3-dihydro-benzoimidazol-2-ylideneamine]
28 | < 10 | N=c1n(CCCOc2ccc(F)cc2)c2ccccc2n1Cc1ccc(N2CCN(Cc3cccc(Cl)c3)CC2)cc1 [Compound 21, 1-{4-[4-(3-Chloro-benzyl)-piperazin-1-yl]-benzyl}-3-[3-(4-fluoro-phenoxy)-propyl]-1,3-dihydro-benzoimidazol-2-ylideneamine]
29 | < 10 | CC1(C)CCC(c2ccc(Cl)cc2)=C(CN2CCN(c3ccc(Cn4c(=N)n(CCCOc5ccc(F)cc5)c5ccc(F)cc54)cc3)CC2)C1 [Compound 64, 3-(4-{4-[2-(4-Chloro-phenyl)-5,5-dimethyl-cyclohex-1-enylmethyl]-piperazin-1-yl}-benzyl)-5-fluoro-1-[3-(4-fluoro-phenoxy)-propyl]-1,3-dihydro-benzoimidazol-2-ylideneamine]
30 | < 10 | N=c1n(CCCOc2ccc(F)cc2)c2ccccc2n1Cc1csc(N2CCN(Cc3ccccc3-c3ccccc3)CC2)n1 [Compound 35, 1-[2-(4-Biphenyl-2-ylmethyl-piperazin-1-yl)-thiazol-4-ylmethyl]-3-[3-(4-fluoro-phenoxy)-propyl]-1,3-dihydro-benzoimidazol-2-ylideneamine]
31 | < 10 | N=c1n(Cc2cccc(N3CCN(Cc4ccccc4-c4ccccc4)CC3)c2)c2ccccc2n1CC(O)COc1ccc(F)cc1 (stereo not shown) [Compound 82, 1-{3-[3-(4-Biphenyl-2-ylmethyl-piperazin-1-yl)-benzyl]-2-imino-2,3-dihydro-benzoimidazol-1-yl}-3-(4-fluoro-phenoxy)-propan-2-ol]

From patent US8759520B2, “Compounds for treating cancer” (Boehringer Ingelheim International GmbH, priority 2008, dated 2014)
